The values below are quoted from earlier work in publication PMC9817006 (Journal of psychopharmacology (Oxford, England), 2022).

Data set [1] relates to C57BL/6J mice. The settings on record: low and high doses, ref Akinola et al., 2019; cited from earlier work.
Data set [2] deals with rats. The settings on record: ref Freitas et al., 2016; cited from earlier work.
For data set [3] the following is noted: systemic administration; ref Rueter et al., 2006; cited from earlier work.

As to `CN1CCC[C@H]1c1cccnc1` [nicotine], the “Locomotor sensitization (in words)” value in data set [1] was “lack of locomotor sensitization”. In the case of dihydro-ß-erythroidine [DHßE], in data set [2], the “Effect on 5IA-facilitated ICSS (in words)” value is “blocked”.

With `c1cncc(OC[C@@H]2CCN2)c1` [A-85380], the “Antinociception and anti-allodynic activity (in words)” value in data set [3] was “showing efficacy in multiple in vivo assays of antinociception, and anti-allodynic activity after systemic administration”.
